The values below come from US20230174523A1, “BENZENESULFONAMIDE DERIVATIVES AS TRAP1 MODULATORS AND USES THEREOF” (Amathus Therapeutics, Inc., priority 2020, published 2023).

This experiment addresses T1, TRAP1 enzyme (Homo sapiens, UniProt Q12931).
T1 sequence (Q12931 60-704): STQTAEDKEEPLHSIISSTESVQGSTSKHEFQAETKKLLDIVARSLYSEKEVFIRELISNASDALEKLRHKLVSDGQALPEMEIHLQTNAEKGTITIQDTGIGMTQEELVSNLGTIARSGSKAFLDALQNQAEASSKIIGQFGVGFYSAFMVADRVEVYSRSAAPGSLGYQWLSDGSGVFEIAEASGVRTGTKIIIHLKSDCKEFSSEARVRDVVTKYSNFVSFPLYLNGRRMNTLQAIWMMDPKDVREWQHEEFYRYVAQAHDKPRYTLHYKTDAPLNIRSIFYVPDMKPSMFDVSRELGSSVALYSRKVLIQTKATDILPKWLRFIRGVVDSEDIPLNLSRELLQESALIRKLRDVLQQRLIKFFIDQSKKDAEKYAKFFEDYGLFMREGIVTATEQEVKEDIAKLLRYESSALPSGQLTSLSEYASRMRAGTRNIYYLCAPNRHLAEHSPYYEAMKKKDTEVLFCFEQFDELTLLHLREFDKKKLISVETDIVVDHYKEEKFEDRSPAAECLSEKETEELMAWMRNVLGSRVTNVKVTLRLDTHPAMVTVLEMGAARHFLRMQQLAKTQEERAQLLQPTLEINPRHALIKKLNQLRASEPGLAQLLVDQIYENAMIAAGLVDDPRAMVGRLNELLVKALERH
Briefly: Malachite green phosphate assay of TRAP1 ATPase activity. In kind it is biochemical. Conditions: for EC50: TRAP1 ATPase activation, 150 nM Trap1, 20 μM ATP, geometric mean, read-out: Malachite Green Fluor DRC: GeoMean EC50; for Emax: read-out: Malachite Green Fluor DRC: Mean Emax. As to the method: The Potency of test compounds to modulate the ATPase activity of TRAP1 enzyme was evaluated using malachite green phosphatase assay. The assay is based on quantification of the green complex formed between Malachite Green, molybdate and inorganic phosphate generated in the phosphatase reaction. Assays were performed using a Malachite Green assay kit. All the assays were carried out in a 96-well transparent plate. The buffer used was 50 mM HEPES (pH 7.5), 20 mM KCl, 4 mM MgCl2 and 0.05% BSA. 150 nM Trap1 enzyme was incubated with various concentrations of the test compound (0.78 μM-100 μM) at 37° C. for 30 mins. 20 μM ATP was added to each well (except blank wells) to start the reaction and the plate was then incubated at 37° C. for 180 mins. 10 μl of the reaction volume of each sample was then transferred to a white 384-well proxiplate in quadruplets. 2.5 μl of Malachite Green reagent was added to all the wells and the plate was equilibrated for 15 mins. The reaction was stopped by adding 12% H2SO4 and the plate was read for fluorescence at 620 nm (λex=573 nm). The amount of phosphate released was estimated from a phosphate standard curve generated at the same experimental conditions. Emax (Maximal percent activation) and EC50 (concentration of test compound for half maximal activation) were estimated by fitting the dose response data to a sigmoidal curve fitting equation using Graphpad Prism software V.7.0.

One may read the EC50 as the midpoint of the concentration-response curve. In general, Emax refers to the size of the effect at its maximum, as opposed to the concentration needed. As for `Cc1ccc2c(c1)OCCN2S(=O)(=O)c1cccc(NC(=O)c2ncco2)c1` [Compound 324], the EC50 was in the range of 20 to 100 µM and the Emax was in the range of 200 to 300%.

Take `COc1ccc(NC(=O)c2cnc(-c3ccccc3)[nH]2)cc1S(=O)(=O)N(CCCCCCO)c1ccc(Br)cc1` [Compound 253]: the EC50 is 10 to 20 µM and the Emax fell in the range of 160 to 199%.

Take `COc1ccc(NC(=O)c2ncc(-c3ccccc3)o2)cc1S(=O)(=O)Nc1ccc(Cl)cc1` [Compound 369]: the EC50 is less than 10 µM and the Emax lay within 160 to 199%.

For the compound `CCCN(c1ccc(Br)cc1)S(=O)(=O)c1cccc(NC(=O)c2ncco2)c1` [Compound 303], the EC50 was in the range of 10 to 20 µM and the Emax lay in the range of 160 to 199%.

As to `COc1ccc(NC(=O)c2nnc(-c3ccccc3)o2)cc1S(=O)(=O)Nc1c(Cl)cccc1Cl` [Compound 469], the EC50 was less than 10 µM and the Emax was in the range of 160 to 199%.

Take `COc1ccc(NC(=O)c2nccs2)cc1S(=O)(=O)Nc1ccc(Cl)cc1` [Compound 349]: the concentration giving a half-maximal response (EC50) is 20 to 100 µM and the Emax fell in the range of 200 to 300%.

Turning to `CCOC(=O)CCCCCN(c1ccc(Br)cc1)S(=O)(=O)c1cc(NC(=O)c2ncco2)ccc1OC` [Compound 247], the EC50 is less than 10 µM and the Emax lay in the range of 123 to 159%.

For the compound `COc1ccc(NC(=O)c2cnc(C(F)(F)F)[nH]2)cc1S(=O)(=O)N(CCCCCCBr)c1ccc(Br)cc1` [Compound 262], the EC50 was in the range of 10 to 20 µM and the Emax was in the range of 200 to 300%.

In the case of `O=C(O)/C=C/c1ccc(NC(=O)c2ncc(-c3ccccc3)o2)cc1S(=O)(=O)Nc1ccc(Cl)cc1` [Compound 648], the EC50 is less than 10 µM and the Emax was in the range of 160 to 199%.

Take `COc1ccc(NC(=O)c2cnc(C(F)(F)F)[nH]2)cc1S(=O)(=O)N(CCCCCO)c1ccc(Br)cc1` [Compound 431, N-(3-(N-(4-bromophenyl)-N-(5-hydroxypentyl)sulfamoyl)-4-methoxyphenyl)-2-(trifluoromethyl)-1H-imidazole-5-carboxamide]: the EC50 fell in the range of 20 to 100 µM and the Emax is greater than 300%.

On to `CCc1ccc(NC(=O)c2ncn(C)n2)cc1S(=O)(=O)Nc1ccc(Cl)cc1` [Compound 575], for which the EC50 is 20 to 100 µM and the Emax fell in the range of 160 to 199%.

For `COc1ccc(NC(=O)c2cnc(C(F)(F)F)[nH]2)cc1S(=O)(=O)Nc1cccc(C(C)(C)C)c1` [Compound 368], the EC50 is 20 to 100 µM and the Emax fell in the range of 200 to 300%.

For the compound `COc1ccc(NC(=O)c2cnc(C(F)(F)F)[nH]2)cc1S(=O)(=O)N(CCCCCC(=O)O)c1ccc(Br)cc1` [Compound 264], the EC50 fell in the range of 10 to 20 µM and the Emax was in the range of 160 to 199%.

In the case of `CCc1ccc(NC(=O)c2cnc(-c3ccccc3)[nH]2)cc1S(=O)(=O)Nc1ccc(Br)cc1` [Compound 170], the EC50 is less than 10 µM and the Emax is 160 to 199%.

In the case of `COc1ccc(-c2ncc(C(=O)Nc3ccc(OC)c(S(=O)(=O)Nc4ccc(Br)cc4)c3)[nH]2)cc1` [Compound 417], the EC50 is less than 10 µM and the Emax is 123 to 159%.

Turning to `COc1ccc(NC(=O)c2oc(C(F)(F)F)nc2C)cc1S(=O)(=O)Nc1ccc(Br)cc1` [Compound 315], the EC50 fell in the range of 10 to 20 µM and the Emax was 160 to 199%.

Regarding `COc1ccc(NC(=O)c2cnc(C(F)(F)F)[nH]2)cc1S(=O)(=O)Nc1ccc(Br)cc1` [Compound 105], the EC50 is 20 to 100 µM and the Emax is 200 to 300%.

As for `COc1ccc(NC(=O)c2ncc(C(F)(F)F)[nH]2)cc1S(=O)(=O)Nc1ccc(Br)cc1` [Compound 229, N-(3-(N-(4-bromophenyl)sulfamoyl)-4-methoxyphenyl)-5-(trifluoromethyl)-1H-imidazole-2-carboxamide], the EC50 lay in the range of 20 to 100 µM and the Emax lay within 160 to 199%.

Take `COc1ccc(NC(=O)c2cnc[nH]2)cc1S(=O)(=O)N(CCCCCCN)c1ccc(Br)cc1` [Compound 266, N-(3-(N-(6-aminohexyl)-N-(4-bromophenyl)sulfamoyl)-4-methoxyphenyl)-1H-imidazole-5-carboxamide]: the EC50 is less than 10 µM and the Emax is 160 to 199%.

Consider `COc1ccc(NC(=O)c2oc(-c3ccccc3)nc2C)cc1S(=O)(=O)Nc1ccc(Cl)cc1` [Compound 488], for which the EC50 fell in the range of 10 to 20 µM and the Emax lay within 200 to 300%.

For `CCc1ccc(NC(=O)c2nnc(-c3ccccc3)[nH]2)cc1S(=O)(=O)Nc1ccc(Cl)cc1` [Compound 595], the EC50 was 10 to 20 µM and the Emax lay in the range of 200 to 300%.

For `COc1ccc(NC(=O)c2cnccc2C(C)C)cc1S(=O)(=O)Nc1ccc(Cl)cc1` [Compound 496], the EC50 was in the range of 20 to 100 µM and the Emax was in the range of 160 to 199%.

As for `COc1ccc(NC(=O)c2cnc(-c3ccccc3)[nH]2)cc1S(=O)(=O)Nc1ccc(N=[N+]=[N-])cc1` [Compound 380, N-(3-(N-(4-azidophenyl)sulfamoyl)-4-methoxyphenyl)-2-phenyl-1H-imidazole-5-carboxamide], the EC50 was less than 10 µM and the Emax was 160 to 199%.

Regarding `COc1ccc(NC(=O)c2cnc(-c3ccc(Cl)cc3)[nH]2)cc1S(=O)(=O)Nc1ccc(Br)cc1` [Compound 415], the EC50 was less than 10 µM and the Emax was 123 to 159%.

On to `COc1ccc(NC(=O)c2cnccc2C)cc1S(=O)(=O)Nc1ccc(C)cc1` [Compound 54], for which the EC50 was 20 to 100 µM and the Emax was 160 to 199%.

With `COc1ccc(NC(=O)c2cnc(-c3ccccc3)o2)cc1S(=O)(=O)Nc1ccc(Br)cc1` [Compound 185], the EC50 was 10 to 20 µM and the Emax is 160 to 199%.

Regarding `COc1ccc(NC(=O)c2cnc(-c3ccccc3)[nH]2)cc1S(=O)(=O)N1Cc2ccc(F)cc2C1` [Compound 200], the EC50 is less than 10 µM and the Emax fell in the range of 160 to 199%.

Take `COc1ccc(NC(=O)c2cnc(C(F)(F)F)[nH]2)cc1S(=O)(=O)Nc1ccc(C(C)(C)C)cc1` [Compound 360]: the EC50 was in the range of 20 to 100 µM and the Emax was in the range of 200 to 300%.

As for `O=C(Nc1ccc(OC(F)(F)F)c(S(=O)(=O)Nc2c(Cl)cccc2Cl)c1)c1cnc(-c2ccccc2)o1` [Compound 655], the EC50 was less than 10 µM and the Emax was in the range of 160 to 199%.

For `COc1ccc(NC(=O)c2cnc(-c3ccccc3)[nH]2)cc1S(=O)(=O)Nc1ccncc1` [Compound 213], the EC50 fell in the range of 20 to 100 µM and the Emax lay within 160 to 199%.

For the compound `COc1ccc(NC(=O)c2cnc(-c3ccccc3)[nH]2)cc1S(=O)(=O)N(CCCCCC(=O)O)c1ccc(Br)cc1` [Compound 243, 6-((N-(4-bromophenyl)-2-methoxy-5-(2-phenyl-1H-imidazole-5-carboxamido)phenyl)sulfonamido) hexanoic acid], the EC50 was 10 to 20 µM and the Emax was greater than 300%.

As to `COc1ccc(NC(=O)c2ncco2)cc1S(=O)(=O)N(CCCCCC[P+](c1ccccc1)(c1ccccc1)c1ccccc1)c1ccc(Br)cc1` [Compound 259], the EC50 is less than 10 µM and the Emax was greater than 300%.

Consider `C=C(C)c1ncoc1C(=O)Nc1ccc(OC)c(S(=O)(=O)Nc2ccc(Cl)cc2)c1` [Compound 593], for which the EC50 lay in the range of 20 to 100 µM and the Emax was in the range of 200 to 300%.

Turning to `O=C(Nc1ccc(CCO)c(S(=O)(=O)Nc2ccc(Br)cc2)c1)c1ncco1` [Compound 333, N-(3-(N-(4-bromophenyl)sulfamoyl)-4-(2-hydroxyethyl)phenyl) oxazole-2-carboxamide], the EC50 was 20 to 100 µM and the Emax fell in the range of 160 to 199%.

Regarding `COc1ccc(NC(=O)c2cnc[nH]2)cc1S(=O)(=O)N(CCOCCOCCOCCN)c1ccc(Br)cc1` [Compound 546], the EC50 lay within 20 to 100 µM and the Emax lay in the range of 160 to 199%.

Regarding `O=C(Nc1cccc(S(=O)(=O)N2CCOc3cc(Cl)ccc32)c1)c1ncco1` [Compound 367], the EC50 was 20 to 100 µM and the Emax lay within 200 to 300%.

With `O=C(Nc1cccc(S(=O)(=O)Nc2ccc(Br)cc2)c1)c1ncco1` [Compound 302], the EC50 lay within 20 to 100 µM and the Emax is 160 to 199%.

As to `CCOC(=O)Cc1ccc(NC(=O)c2ncco2)cc1S(=O)(=O)Nc1ccc(Br)cc1` [Compound 332], the EC50 fell in the range of 20 to 100 µM and the Emax fell in the range of 200 to 300%.

As to `CC(C)c1ccc(NC(=O)c2cnc(-c3ccccc3)o2)cc1S(=O)(=O)Nc1ccc(Cl)cc1` [Compound 576], the EC50 lay in the range of 10 to 20 µM and the Emax is 160 to 199%.
